For assay [1], the target named is T1, purified recombinant urease from H. pylori (Helicobacter pylori, UniProt B5Z674).
T1 construct: plasmid pGEM::ureOP, which encodes the entire urease gene cluster, was used to produce recombinant H. pylori urease; made in house; host or cells: E. coli Rosetta2 (DE3) + pGEM::ureOP
Put plainly: Inhibition of purified recombinant H. pylori urease (phenol-hypochlorite, Lineweaver-Burk). The class given is biochemical. To be noted: 50 mM phosphate buffer pH 7.5, 37°C, 0.1–2.5 mM urea, competitive reversible inhibition. Here is the method:
The kinetic parameters of urease were determined by measuring the initial rates of the reactions in 50 mM phosphate buffer (pH 7.5) at 37°C. Ammonia was routinely quantified by the phenol hypochlorite method as reported previously.
Inhibition studies were conducted by initiating the enzymatic reaction with the addition of the enzyme into assay mixtures (200 μL total volume) containing increasing concentrations of inhibitors and 0.1–2.5 mM urea. After 15 min of incubation at 37°C, the reaction was stopped by adding phenol-hypochlorite reagents and the absorbance of the formed indophenol blue complexes was measured at 650 nm. The Ki values were determined from Lineweaver-Burk plots after testing at least five inhibitor concentrations in a range that depended on their inhibitory strength. The concentration of inhibitor that caused the loss of 50% of the enzyme’s activity (IC50) was determined from the measurements that were performed at a urea concentration of 0.6 mM and calculated using the linear regression of the urease activity versus the logarithm of the inhibitor concentrations.
The values of Ki and IC50 for all analyzed compounds were calculated using the appropriate equations in GraphPad Prism 5. Errors were reported with two significant digits, and each measured parameter was given with the same number of decimal places as its error [32].

Assay [2] has as its target T2, urease in intact E. coli (pGEM::ureOP) cells (Helicobacter pylori, UniProt B5Z674).
T2 construct: plasmid pGEM::ureOP, which encodes the entire urease gene cluster, was used to produce recombinant H. pylori urease; expressed in transfected cells; host or cells: E. coli Rosetta2 (DE3) transformed with pGEM::ureOP
Put plainly: Urease inhibition in whole cells of E. coli + pGEM::ureOP. Particulars: IC50 exceeding 2 mM considered not active. The class given is cell-based. How it is done:
The expression strain E. coli + pGEM::ureOP was cultured in 150 mL of LB broth (Biocorp, Poland) with 100 μg/mL ampicillin (Polfa, Tarchomin, Poland) at 37°C and induced with IPTG (0.75 mM) and Ni^2+ (0.75 mM) during the exponential growth phase, which was determined by the OD600 measurements (OD600 = 0.6). Further expression was conducted for 24 h at 22°C. The bacterial culture (1 mL) was harvested via centrifugation (2 min, 20 376 x g, 37°C) and washed three times with PBS. The pellets from 1-mL samples of the expression cell culture were resuspended in 100 μL of PBS. The hydrolysis of urea that is catalyzed by whole bacterial cells was performed in 96-well plates (Rotilabo, U-profile). The reaction progress curves were obtained by the addition of bacterial cells (1×10^9 CFU/mL final concentration) into mixtures (300 μL final volume) that contained 5 mM urea and various inhibitor concentrations that depended on their inhibitory strength. Alternatively, the reaction was initiated via the addition of a concentrated solution of urea after a 120-min preincubation of bacterial cells with the inhibitor. Samples (50 μL) of the reaction mixture were removed after the appropriate reaction time. The enzymatic reactions in the samples were terminated via the introduction of 100 μL of phenol-sodium nitroprusside solution, immediately followed by the addition of 100 μL of NaOH-hypochlorite solution. The absorption of indophenol blue was measured at 650 nm using a TECAN-Sunrise absorbance reader equipped with a gradient filter and Magellan software. The IC50 values were determined from the linear regression of the urease activity versus the logarithm of the inhibitor concentration. The reaction was studied in the absence and in the presence of the inhibitor. The influence of dimethylformamide (DMF), which was used as a solvent for several compounds, was also determined.

Assay [3] deals with T3, urease in intact H. pylori J99 (Helicobacter pylori, UniProt P69997).
T3 construct: In the intact H. pylori J99 cells, the urease susceptibility profile was similar to that of E. coli (pGEM::ureOP); endogenous in cells
Put plainly: Urease inhibition in whole cells of H. pylori J99. The class given is cell-based.

Where [4] appears, read: without preincubation of cells with inhibitory compounds, 30-min reactions, 5 mM urea.
Where [5] appears, read: cells grown with urea, 2 h of preincubation with inhibitors in PBS under microaerobic conditions, read-out: IC502h PBS.
The mark [6] stands for this setting: cells grown with urea, 2 h of preincubation with inhibitors in growth medium under microaerobic conditions, read-out: IC502h medium.
[7] abbreviates: cells grown with urea, without preincubation, read-out: IC500.
The mark [8] stands for this setting: cells grown without urea, 2 h of preincubation with inhibitors in PBS under microaerobic conditions, read-out: IC502h PBS.
[9] abbreviates: cells grown without urea, without preincubation, read-out: IC500.
Setting [10] is: read-out: IC500, without preincubation of cells with inhibitory compounds, 30-min reactions, 5 mM urea.
[11] abbreviates: read-out: IC502h PBS, 2 h of preincubation with inhibitors in PBS.
Setting [12] is: IC500, without preincubation of cells with inhibitory compounds, 30-min reactions, 5 mM urea.
The mark [13] stands for this setting: IC502h PBS, 2 h of preincubation with inhibitors in PBS.

Where two headings read alike, the source gives them in different places.

T1 sequence (B5Z674 whole entry, looked up): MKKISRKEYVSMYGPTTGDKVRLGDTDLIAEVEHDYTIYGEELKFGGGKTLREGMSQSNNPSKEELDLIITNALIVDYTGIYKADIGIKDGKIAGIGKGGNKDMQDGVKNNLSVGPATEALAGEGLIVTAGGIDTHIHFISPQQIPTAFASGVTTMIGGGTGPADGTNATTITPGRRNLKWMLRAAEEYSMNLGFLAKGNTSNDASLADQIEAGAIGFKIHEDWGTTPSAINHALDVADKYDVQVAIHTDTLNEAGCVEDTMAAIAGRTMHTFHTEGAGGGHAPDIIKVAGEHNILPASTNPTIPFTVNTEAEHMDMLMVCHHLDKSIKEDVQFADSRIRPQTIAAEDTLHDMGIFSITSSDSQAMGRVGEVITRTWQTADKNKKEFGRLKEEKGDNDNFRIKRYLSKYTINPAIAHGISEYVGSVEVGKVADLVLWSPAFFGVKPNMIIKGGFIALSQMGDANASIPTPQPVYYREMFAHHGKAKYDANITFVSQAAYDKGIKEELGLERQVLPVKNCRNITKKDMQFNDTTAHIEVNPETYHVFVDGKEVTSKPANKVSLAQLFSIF
T2 sequence (B5Z674 whole entry, looked up): as above
T3 sequence (Q9ZMZ4 whole entry): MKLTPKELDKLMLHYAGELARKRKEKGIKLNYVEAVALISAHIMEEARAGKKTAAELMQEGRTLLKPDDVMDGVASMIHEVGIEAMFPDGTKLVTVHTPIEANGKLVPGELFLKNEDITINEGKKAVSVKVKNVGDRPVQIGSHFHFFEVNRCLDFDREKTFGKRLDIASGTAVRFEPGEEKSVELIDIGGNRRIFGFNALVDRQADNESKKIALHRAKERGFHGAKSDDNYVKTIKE
T3 sequence (P69997 whole entry): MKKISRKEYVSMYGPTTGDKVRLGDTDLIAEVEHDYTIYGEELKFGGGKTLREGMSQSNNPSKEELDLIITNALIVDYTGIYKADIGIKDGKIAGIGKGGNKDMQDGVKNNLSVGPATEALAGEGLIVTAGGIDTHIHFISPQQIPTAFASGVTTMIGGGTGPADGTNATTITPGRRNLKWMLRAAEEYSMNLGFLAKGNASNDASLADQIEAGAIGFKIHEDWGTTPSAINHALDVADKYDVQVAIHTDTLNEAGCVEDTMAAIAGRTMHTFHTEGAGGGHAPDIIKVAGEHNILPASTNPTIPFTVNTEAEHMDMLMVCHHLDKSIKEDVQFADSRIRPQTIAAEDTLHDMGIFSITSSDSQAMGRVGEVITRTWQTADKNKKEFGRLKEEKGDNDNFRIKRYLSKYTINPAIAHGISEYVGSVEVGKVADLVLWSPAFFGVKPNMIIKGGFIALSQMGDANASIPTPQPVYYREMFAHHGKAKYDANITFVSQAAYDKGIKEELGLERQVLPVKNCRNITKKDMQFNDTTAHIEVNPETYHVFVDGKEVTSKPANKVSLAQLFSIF

What is called Ki is a dissociation constant, usually derived from enzyme kinetics or from competition with a known ligand. For the molecule `CN(Cc1ccccc1)CP(=O)(O)CN` [Compound 19], the Ki in assay [1] (Ki) is 36.4 ± 4.9 µM. The IC500 entry in assay [2] (setting [4]) was “complete lack of inhibitory effects”. In addition, the IC50 in assay [3] (setting [5]), in assay [3] (setting [6]), in assay [3] (setting [7]), in assay [3] (setting [8]) and in assay [3] (setting [9]) was over 2000 µM in each case.
As for `CN(C)CP(=O)(O)CN(C)C` [Compound 22], the IC50 in assay [2] (setting [10]), in assay [2] (setting [11]), in assay [3] (setting [5]), in assay [3] (setting [6]), in assay [3] (setting [7]) and in assay [3] (setting [8]) was over 2000 µM each time. Also, in assay [3] (setting [9]), the IC50 was over 2000 µM.
Consider `CCCCNCP(=O)(O)CN` [Compound 11], for which the Ki in assay [1] (Ki) worked out at 27 ± 2.1 µM. The IC50 in assay [2] (setting [12]) was 779 ± 99 µM; in assay [2] (setting [13]), 284 ± 41 µM; in assay [3] (setting [5]) it was 816 ± 39 µM; in assay [3] (setting [6]), 470 ± 38 µM; in assay [3] (setting [7]), 733 ± 9.2 µM; in assay [3] (setting [8]) it was 933 ± 206 µM. Besides, the IC50 in assay [3] (setting [9]) worked out at 881 ± 35 µM.
With `CC(C)CNCP(=O)(O)CN` [Compound 10], the Ki in assay [1] (Ki) turned out to be 440 ± 70 µM. For the same molecule, the IC50 in assay [2] (setting [13]) was 1870 ± 113 µM; in assay [2] (setting [10]) it was over 2000 µM; in assay [3] (setting [5]) it was 1130 ± 83 µM; in assay [3] (setting [6]), 835 ± 34 µM; in assay [3] (setting [7]), over 2000 µM; in assay [3] (setting [8]) it was 980 ± 35 µM. Besides, the IC50 in assay [3] (setting [9]) was 913 ± 63 µM.
With `NCP(=O)(O)CNC1CCCCC1` [Compound 17], the IC50 in assay [2] (setting [10]), in assay [2] (setting [11]), in assay [3] (setting [5]), in assay [3] (setting [6]), in assay [3] (setting [7]) and in assay [3] (setting [8]) was over 2000 µM throughout. Also, the IC50 in assay [3] (setting [9]) is over 2000 µM.
`O=P(O)(CNCc1ccccc1)CNCc1ccccc1` [Compound 23]: the Ki in assay [1] (Ki) was found to be 50.7 ± 4.8 µM. Besides, the IC500 result in assay [2] (setting [4]) is “complete lack of inhibitory effects”. In addition, the IC50 in assay [3] (setting [5]), in assay [3] (setting [6]), in assay [3] (setting [7]), in assay [3] (setting [8]) and in assay [3] (setting [9]) was over 2000 µM throughout.
`CC(=O)NO` [Compound 24, acetohydroxamic acid, reference compound]: the Ki in assay [1] (listed as acetohydroxamic acid, read-out: Ki) was determined as 23 µM; in assay [1] (read-out: Ki), 23.2 ± 1.5 µM. Besides, the IC50 was determined as 96 ± 17 µM in assay [2] (2 h of preincubation with inhibitors in PBS, read-out: IC502h PBS); 153 ± 31 µM in assay [2] (without preincubation of cells with inhibitory compounds, 30-min reactions, 5 mM urea, read-out: IC500); 1360 ± 194 µM in assay [3] (setting [5]); 192 ± 26 µM in assay [3] (setting [6]); 1670 ± 70 µM in assay [3] (setting [7]); 156 ± 32 µM in assay [3] (setting [8]). Moreover, the IC50 in assay [3] (setting [9]) is over 2000 µM; in assay [3] (urea-grown cells, preincubation in PBS, read-out: IC502h PBS), 1350 µM; in assay [3] (urea-grown cells, without former preincubation, read-out: IC500), 1660 µM.
Turning to `CCCCCCNCP(=O)(O)CO` [Compound 5], the Ki in assay [1] (Ki) was found to be 74.3 ± 4.7 µM.
As for `CCCCCCCNCP(=O)(O)CN` [Compound 14], in assay [1] (Ki), the Ki is 878 ± 25 µM. Further, the IC50 is over 2000 µM in assay [2] (setting [10]); over 2000 µM in assay [2] (setting [11]); 672 ± 52 µM in assay [3] (setting [5]); 474 ± 34 µM in assay [3] (setting [6]); 942 ± 79 µM in assay [3] (setting [7]); 675 ± 33 µM in assay [3] (setting [8]). Besides, the IC50 in assay [3] (setting [9]) was found to be 743 ± 74 µM. In addition, the IC500 result in assay [2] (setting [4]) was “complete lack of inhibitory effects”.
Turning to `NCP(=O)(O)CN1CCCCC1` [Compound 16], the IC50 in assay [2] (setting [10]), in assay [2] (setting [11]), in assay [3] (setting [5]), in assay [3] (setting [6]), in assay [3] (setting [7]) and in assay [3] (setting [8]) was over 2000 µM in each case. In addition, the IC50 in assay [3] (setting [9]) is over 2000 µM.
As to `CCCCCNCP(=O)(O)CN` [Compound 12], the Ki in assay [1] (Ki) was found to be 43.1 ± 3.6 µM. Also, the IC50 in assay [2] (setting [12]) stood at 1670 ± 232 µM; in assay [2] (setting [13]), 475 ± 73 µM; in assay [3] (setting [5]) it was 853 ± 93 µM; in assay [3] (setting [6]), 806 ± 72 µM; in assay [3] (setting [7]), 813 ± 61 µM; in assay [3] (setting [8]), 917 ± 105 µM. Also, the IC50 in assay [3] (setting [9]) worked out at 872 ± 68 µM.
In the case of `NCP(=O)(O)CNCc1ccccc1` [Compound 18], the Ki in assay [1] (Ki) was determined as 44.4 ± 2.5 µM. Further, the IC50 in assay [2] (setting [10]), in assay [2] (setting [11]), in assay [3] (setting [5]), in assay [3] (setting [6]), in assay [3] (setting [7]) and in assay [3] (setting [8]) was over 2000 µM in each case. Besides, in assay [3] (setting [9]), the IC50 was over 2000 µM. Moreover, the IC500 result in assay [2] (setting [4]) was “complete lack of inhibitory effects”.
In the case of `CN(C)CP(=O)(O)CN` [Compound 8], in assay [1] (Ki), the Ki was found to be 29.9 ± 2 µM.
For `CCN(CC)CP(=O)(O)CN` [Compound 20], the IC50 in assay [2] (setting [10]), in assay [2] (setting [11]), in assay [3] (setting [5]), in assay [3] (setting [6]), in assay [3] (setting [7]) and in assay [3] (setting [8]) was over 2000 µM throughout. Also, the IC50 in assay [3] (setting [9]) is over 2000 µM.

The values above are taken from paper PMC5550016, “Aminophosphinates against Helicobacter pylori ureolysis—Biochemical and whole-cell inhibition characteristics” (PLoS ONE, 2017).
